# Experimental data taken from the supplement of paper PMC10307832.
# Legend:
# Test in all cases: relative viability (nuclei count vs DMSO), 5 days (fraction); higher = more cells survive
# [1] = compound: O=C(O)c1ccc2c(c1)nc(Nc1cccc(Cl)c1)c1ccncc12 [Silmitasertib] + CC(=O)Nc1cccc(-n2c(=O)n(C3CC3)c(=O)c3c(Nc4ccc(I)cc4F)n(C)c(=O)c(C)c32)c1 [Trametinib] (partner 0.02 µM)
# How it was run: (§1)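 Lung cancer cell lines in 1536-well plates were dosed by pin tool the day after seeding, either with one drug alone or with a fixed anchor-drug dose plus five library-drug doses (not always all listed) in √10 steps. After 5 days, cells were fixed and their nuclei stained in one step (final 0.05% Triton X-100, 1% formaldehyde, 1 ug/ml Hoechst), then counted on 4× images. Relative viability is the nuclei count in treated wells divided by that in vehicle wells. Values are medians of duplicate plates.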
# [2] = compound: O=C(O)c1ccc2c(c1)nc(Nc1cccc(Cl)c1)c1ccncc12 [Silmitasertib] + CC(=O)c1c(C)c2cnc(Nc3ccc(N4CCNCC4)cn3)nc2n(C2CCCC2)c1=O [Palbociclib] (partner 0.5 µM)
# How it was run: as §1
# [3] = compound: O=C(O)c1ccc2c(c1)nc(Nc1cccc(Cl)c1)c1ccncc12 [Silmitasertib] + Cc1cc(Nc2cc(N3CCN(C)CC3)nc(Sc3ccc(NC(=O)C4CC4)cc3)n2)n[nH]1 [Tozasertib] (partner 0.1 µM)
# How it was run: as §1
# [4] = compound: O=C(O)c1ccc2c(c1)nc(Nc1cccc(Cl)c1)c1ccncc12 [Silmitasertib] + Cc1nc(Nc2ncc(C(=O)Nc3c(C)cccc3Cl)s2)cc(N2CCN(CCO)CC2)n1 [Dasatinib] (partner 0.075 µM)
# How it was run: as §1
# Silmitasertib + AZD7762 = compound: O=C(O)c1ccc2c(c1)nc(Nc1cccc(Cl)c1)c1ccncc12 [Silmitasertib] + NC(=O)Nc1cc(-c2cccc(F)c2)sc1C(=O)N[C@H]1CCCNC1 [AZD7762] (partner 0.2 µM)
# How it was run: as §1
Cell Line,relative viability ([1]; first compound 0.04 µM),relative viability ([1]; first compound 0.4 µM),relative viability ([1]; first compound 1.265 µM),relative viability ([1]; first compound 4 µM),relative viability ([2]; first compound 0.04 µM),relative viability ([2]; first compound 0.4 µM),relative viability ([2]; first compound 1.265 µM),relative viability ([2]; first compound 4 µM),relative viability ([3]; first compound 0.04 µM),relative viability ([3]; first compound 0.4 µM),relative viability ([3]; first compound 1.265 µM),relative viability ([3]; first compound 4 µM),relative viability ([4]; first compound 0.04 µM),relative viability ([4]; first compound 0.4 µM),relative viability ([4]; first compound 1.265 µM),relative viability ([4]; first compound 4 µM),relative viability (Silmitasertib + AZD7762; first compound 0.04 µM),relative viability (Silmitasertib + AZD7762; first compound 0.4 µM),relative viability (Silmitasertib + AZD7762; first compound 1.265 µM),relative viability (Silmitasertib + AZD7762; first compound 4 µM)
LCLC-103H,0.689,0.71,0.648,0.636,0.462,0.45,0.266,0.389,0.522,0.341,0.356,0.289,0.449,0.414,0.419,0.279,0.839,0.803,0.759,0.588
NCI-H1915,0.334,,0.304,0.254,0.58,,0.517,0.297,0.487,,0.38,0.283,0.32,,0.332,0.192,0.752,,0.77,0.535
ChaGo-K-1,0.938,0.704,0.821,0.907,0.995,0.674,0.896,0.929,0.198,0.219,0.231,0.241,0.586,0.464,0.566,0.463,0.905,0.618,0.85,0.913
PC-14,1.07,,0.802,0.633,0.581,,0.553,0.541,0.668,,0.595,0.532,0.273,0.236,0.293,0.388,0.336,,0.399,0.321
NCI-H1437,0.493,0.466,0.353,0.274,0.305,0.26,0.221,0.222,0.397,0.406,0.3,0.241,0.483,0.376,0.272,0.322,1.2,1.06,1.02,1.06
NCI-H1734,0.737,0.664,0.63,0.581,0.343,0.326,0.323,0.36,0.275,0.261,0.274,0.243,0.498,0.422,0.471,0.487,0.555,0.445,0.544,0.513
LK-2,0.674,,0.678,0.702,0.593,,0.509,0.397,0.165,,0.169,0.19,0.328,,0.309,0.321,0.344,,0.362,0.219
HCC-15,0.407,0.343,0.275,0.286,0.77,0.491,0.564,0.367,0.392,0.356,0.232,0.133,0.669,0.53,0.396,0.32,1.19,0.884,1.15,0.875
HCC-366,0.354,0.337,0.318,0.255,0.422,0.329,0.36,0.38,0.107,0.0962,0.0628,0.0717,0.57,0.48,0.525,0.379,0.254,0.188,0.371,0.147
NCI-H650,1.01,0.567,0.666,1.21,0.319,0.236,0.266,0.259,0.874,0.492,0.496,0.355,0.479,0.373,0.375,0.285,1.17,0.524,0.907,0.982
NCI-H2347,0.264,0.263,0.277,0.266,0.43,0.418,0.38,0.394,0.663,,0.56,0.419,0.581,,0.313,0.254,0.656,0.663,0.531,0.633
LXF-289,0.666,,0.752,0.836,0.606,,0.657,0.66,0.212,,0.186,0.182,0.181,,0.346,0.363,1.13,,1.29,1.28
BEN,1.14,0.856,1.02,0.968,0.511,0.394,0.432,0.519,0.435,0.367,0.481,0.422,0.382,,0.295,0.233,0.935,0.674,0.625,0.568
NCI-H1355,0.454,,0.393,0.367,0.403,,0.358,0.366,0.545,,0.528,0.46,0.766,,0.578,0.485,0.729,,0.776,0.679
NCI-H1793,0.503,0.425,0.371,0.488,0.309,0.319,0.32,0.303,0.392,0.297,0.2,0.331,0.382,0.324,0.357,0.393,0.725,0.457,0.654,0.515
NCI-H838,0.673,0.489,0.463,0.309,0.253,0.25,0.18,0.199,0.289,,0.257,0.222,0.323,0.325,0.372,0.254,0.828,0.864,1.03,0.951
EMC-BAC-2,0.977,0.845,0.684,0.698,0.521,0.448,0.378,0.292,0.291,0.272,0.198,0.162,0.34,0.301,0.283,0.287,1.22,1.04,1.08,0.662
